According to US6048882A, “Prophylactic and therapeutic agent for hepatic diseases” (Nisshin Flour Milling Co., Ltd., priority 1995, dated 2000):
Counter-ions that a name gives are not always drawn. Like-named read-outs stand apart in the source and are kept apart here.

Key:
[1] = system: experimental hepatopathy models prepared by administering carbon tetrachloride; test: Inhibitory action on hepatopathy in hepatopathy models by carbon tetrachloride (lipid emulsion; serum GPT and GOT); type: in vivo, ddY strain male mice; conditions: Mus musculus, iv, 20 h, i.v., one hour before carbon tetrachloride; for inhibition in vivo at 0.001 mg/kg: dose 1 μg/kg; for inhibition in vivo at 0.01 mg/kg: dose 10 μg/kg; for inhibition in vivo at 0.0001 mg/kg: dose 0.1 μg/kg
Description: Carbon tetrachloride was diluted with olive oil to a concentration of 0.5% when administered. The present isoprenylamine derivatives were formulated into the lipid emulsions according to the method described in Pharmaceutical Example 8 and intravenously administered at a dose of 0.1-10 μg/kg one hour before the administration of carbon tetrachloride. 20 hours after the administration of carbon tetrachloride, blood samples were collected from animals under ether anesthesia and centrifuged. Then, serum GPT and GOT were determined and the respective inhibition rates were calculated on the bases of the serum GPT and GOT values obtained when the present isoprenylamine derivative was not administered being defined as 100, respectively.

[2] = system: experimental hepatopathy models prepared by D-galactosamine administration; test: Inhibitory action on hepatopathy in hepatopathy models by D-galactosamine (serum GPT and GOT); type: in vivo, Wistar strain male mice; conditions: iv, 24 h, 2 hours after D-galactosamine; for inhibition in vivo at 0.01 mg/kg / inhibition in vivo at 0.03 mg/kg: lipid emulsion, i.v.; for inhibition in vivo at 0.01 mg/kg: dose 10 μg/kg; for inhibition in vivo at 0.03 mg/kg: dose 30 μg/kg; for inhibition in vivo at 3 mg/kg: dissolved in distilled water, dose 3000 μg/kg
Description: In these tests, GPT (glutamic-pyruvic transaminase) and GOT (glutamic-oxaloacetic transaminase) were determined using kits for the determination of GPT and GOT upon the method by U. Lippi et al., Iatrozyme TA-Lq (available from Iatron Laboratories Inc.), wherein the NADH formed when enzymes act upon substrates can reduce nitrotetrazolium blue (NTB) via 1-methoxy-5-methylphenazinium methylsulfate (1-methoxy PMS) to form formazan, which is then subjected to colorimetric analysis at a wavelength of 560 nm.
Inhibitory action of lipid emulsions containing the present isoprenylamine derivatives was evaluated by inhibition rates of GPT and GOT in experimental hepatopathy models prepared by D-galactosamine administration.
The experimental hepatopathy model was prepared by intraperitoneal administration of D-galactosamine at 400 mg/kg to Wistar strain male […] weighing about 170 g. The present isoprenylamine derivative was formulated to a lipid emulsion according to the method described in Pharmaceutical Example 8, and was intravenously administered at a dose of 10-30 μg/kg 2 hours after the administration of D-galactosamine.
24 hours after the D-galactosamine administration, blood samples were collected form animals under ether anesthesia and centrifuged. Then, serum GPT and GOT were determined and the respective inhibition rates were calculated on the bases of the serum GPT and GOT values obtained when the present isoprenylamine derivatives were not administered being defined as 100, respectively.
For comparison, glycyrrhizin ammonium (Tokyo Kasei Co.) dissolved in distilled water was administered in a similar manner to that for the isoprenylamine derivatives, blood sampling and determination were conducted and the serum GPT and GOT inhibition rates were calculated.

CC(C)=CCC/C(C)=C/CC/C(C)=C/CC/C(C)=C/CNCc1ccc2c(c1)OCO2 [Compound 1, N-geranylgeranylpiperonylamine hydrochloride]
inhibition in vivo at 0.001 mg/kg ([1]; read-out: GOT inhibition): 13%
inhibition in vivo at 0.001 mg/kg ([1]; read-out: GPT inhibition): 21%

CC(C)=CCC/C(C)=C/CC/C(C)=C/CC/C(C)=C/CC/C(C)=C/CNCc1ccc2c(c1)OCO2 [Compound 2, N-farnesylgeranylpiperonylamine hydrochloride]
inhibition in vivo at 0.01 mg/kg ([2]; read-out: GOT inhibition): 23%
inhibition in vivo at 0.01 mg/kg ([2]; read-out: GPT inhibition): 23%

CC(C)=CCC/C(C)=C/CC/C(C)=C/CC/C(C)=C/CC/C(C)=C/CC/C(C)=C/CNCc1ccc2c(c1)OCO2 [Compound 3, N-farnesylfarnesylpiperonylamine hydrochloride]
inhibition in vivo at 0.01 mg/kg ([2]; read-out: GOT inhibition): 21%
inhibition in vivo at 0.01 mg/kg ([2]; read-out: GPT inhibition): 20%

CC(C)=CCC/C(C)=C/CC/C(C)=C/CC/C(C)=C/CC/C(C)=C/CC/C(C)=C/CC/C(C)=C/CNCc1ccc2c(c1)OCO2 [Compound 4, N-farnesylgeranylgeranylpiperonylamine hydrochloride]
inhibition in vivo at 0.01 mg/kg ([2]; read-out: GOT inhibition): 31%
inhibition in vivo at 0.01 mg/kg ([2]; read-out: GPT inhibition): 30%
inhibition in vivo at 0.001 mg/kg ([1]; read-out: GOT inhibition): 28%
inhibition in vivo at 0.001 mg/kg ([1]; read-out: GPT inhibition): 22%

CC(C)=CCC/C(C)=C/CC/C(C)=C/CC/C(C)=C/CC/C(C)=C/CC/C(C)=C/CC/C(C)=C/CC/C(C)=C/CNCc1ccc2c(c1)OCO2 [Compound 5, N-farnesylfarnesylgeranylpiperonylamine hydrochloride]
inhibition in vivo at 0.01 mg/kg ([2]; read-out: GOT inhibition): 29%
inhibition in vivo at 0.01 mg/kg ([2]; read-out: GPT inhibition): 27%

CC(C)=CCC/C(C)=C/CC/C(C)=C/CC/C(C)=C/CC/C(C)=C/CC/C(C)=C/CC/C(C)=C/CC/C(C)=C/CC/C(C)=C/CNCc1ccccc1 [Compound 7, N-solanesylbenzylamine hydrochloride]
inhibition in vivo at 0.001 mg/kg ([1]; read-out: GOT inhibition): 42%
inhibition in vivo at 0.001 mg/kg ([1]; read-out: GPT inhibition): 42%

CC(C)=CCC/C(C)=C/CC/C(C)=C/CC/C(C)=C/CC/C(C)=C/CC/C(C)=C/CC/C(C)=C/CC/C(C)=C/CC/C(C)=C/CNCc1ccc(O)cc1 [Compound 8, N-solanesyl-4-hydroxybenzylamine hydrochloride]
inhibition in vivo at 0.01 mg/kg ([1]; read-out: GOT inhibition): 25%
inhibition in vivo at 0.01 mg/kg ([1]; read-out: GPT inhibition): 22%

CC(C)=CCC/C(C)=C/CC/C(C)=C/CC/C(C)=C/CC/C(C)=C/CC/C(C)=C/CC/C(C)=C/CC/C(C)=C/CC/C(C)=C/CNCc1ccc(Cl)cc1 [Compound 9, N-solanesyl-4-chlorobenzylamine hydrochloride]
inhibition in vivo at 0.03 mg/kg ([2]; read-out: GOT inhibition): 47%
inhibition in vivo at 0.03 mg/kg ([2]; read-out: GPT inhibition): 53%

CC(C)=CCC/C(C)=C/CC/C(C)=C/CC/C(C)=C/CC/C(C)=C/CC/C(C)=C/CC/C(C)=C/CC/C(C)=C/CC/C(C)=C/CNCc1ccc(C)cc1 [Compound 10, N-solanesyl-4-methylbenzylamine hydrochloride]
inhibition in vivo at 0.03 mg/kg ([2]; read-out: GOT inhibition): 54%
inhibition in vivo at 0.03 mg/kg ([2]; read-out: GPT inhibition): 63%

CC(C)=CCC/C(C)=C/CC/C(C)=C/CC/C(C)=C/CC/C(C)=C/CC/C(C)=C/CC/C(C)=C/CC/C(C)=C/CC/C(C)=C/CNCc1ccc(O)c(O)c1 [Compound 11, N-solanesyl-3,4-dihydroxybenzylamine hydrochloride]
inhibition in vivo at 0.03 mg/kg ([2]; read-out: GOT inhibition): 41%
inhibition in vivo at 0.03 mg/kg ([2]; read-out: GPT inhibition): 55%

COc1cc(CNC/C=C(\C)CC/C=C(\C)CC/C=C(\C)CC/C=C(\C)CC/C=C(\C)CC/C=C(\C)CC/C=C(\C)CC/C=C(\C)CCC=C(C)C)ccc1O [Compound 12, N-solanesyl-4-hydroxy-3-methoxybenzylamine hydrochloride]
inhibition in vivo at 0.03 mg/kg ([2]; read-out: GOT inhibition): 42%
inhibition in vivo at 0.03 mg/kg ([2]; read-out: GPT inhibition): 53%

COc1ccc(CNC/C=C(\C)CC/C=C(\C)CC/C=C(\C)CC/C=C(\C)CC/C=C(\C)CC/C=C(\C)CC/C=C(\C)CC/C=C(\C)CCC=C(C)C)cc1OC [Compound 13, N-solanesylveratrylamine hydrochloride]
inhibition in vivo at 0.0001 mg/kg ([1]; read-out: GOT inhibition): 14%
inhibition in vivo at 0.0001 mg/kg ([1]; read-out: GPT inhibition): 21%

COc1c(C)c(CNC/C=C(\C)CC/C=C(\C)CC/C=C(\C)CC/C=C(\C)CC/C=C(\C)CC/C=C(\C)CC/C=C(\C)CC/C=C(\C)CCC=C(C)C)c(OC)c(OC)c1OC [Compound 14, N-solanesyl-2,3,4,5-tetramethoxy-6-methylbenzylamine hydrochloride]
inhibition in vivo at 0.03 mg/kg ([2]; read-out: GOT inhibition): 55%
inhibition in vivo at 0.03 mg/kg ([2]; read-out: GPT inhibition): 64%

CC(C)=CCC/C(C)=C/CC/C(C)=C/CC/C(C)=C/CC/C(C)=C/CC/C(C)=C/CC/C(C)=C/CC/C(C)=C/CC/C(C)=C/CNCc1ccc2c(c1)OCO2 [Compound 15, N-solanesylpiperonylamine malate]
inhibition in vivo at 0.01 mg/kg ([1]; read-out: GOT inhibition): 18%
inhibition in vivo at 0.01 mg/kg ([1]; read-out: GPT inhibition): 24%

CC(C)=CCC/C(C)=C/CC/C(C)=C/CC/C(C)=C/CC/C(C)=C/CC/C(C)=C/CC/C(C)=C/CC/C(C)=C/CC/C(C)=C/CNc1ccc2c(c1)OCO2 [Compound 16, N-solanesyl-(3,4-methylenedioxy)aniline hydrochloride]
inhibition in vivo at 0.03 mg/kg ([2]; read-out: GOT inhibition): 48%
inhibition in vivo at 0.03 mg/kg ([2]; read-out: GPT inhibition): 43%

CC(C)=CCC/C(C)=C/CC/C(C)=C/CC/C(C)=C/CC/C(C)=C/CC/C(C)=C/CC/C(C)=C/CC/C(C)=C/CC/C(C)=C/CNCCc1ccc2c(c1)OCO2 [Compound 17, N-Solanesyl-2-(3,4-methylenedioxyphenyl)ethylamine Hydrochloride]
inhibition in vivo at 0.03 mg/kg ([2]; read-out: GOT inhibition): 24%
inhibition in vivo at 0.03 mg/kg ([2]; read-out: GPT inhibition): 23%

CC(C)=CCC/C(C)=C/CC/C(C)=C/CC/C(C)=C/CC/C(C)=C/CC/C(C)=C/CC/C(C)=C/CC/C(C)=C/CC/C(C)=C/CNCCCc1ccc2c(c1)OCO2 [Compound 18, N-solanesyl-3-(3,4-methylenedioxyphenyl)propylamine hydrochloride]
inhibition in vivo at 0.03 mg/kg ([2]; read-out: GOT inhibition): 22%
inhibition in vivo at 0.03 mg/kg ([2]; read-out: GPT inhibition): 20%

CC(C)=CCC/C(C)=C/CC/C(C)=C/CC/C(C)=C/CC/C(C)=C/CC/C(C)=C/CC/C(C)=C/CC/C(C)=C/CC/C(C)=C/CN(C)Cc1ccc2c(c1)OCO2 [Compound 19, N-methyl-N-solanesylpiperonylamine]
inhibition in vivo at 0.001 mg/kg ([1]; read-out: GOT inhibition): 43%
inhibition in vivo at 0.001 mg/kg ([1]; read-out: GPT inhibition): 31%

CC(C)=CCC/C(C)=C/CC/C(C)=C/CC/C(C)=C/CC/C(C)=C/CC/C(C)=C/CC/C(C)=C/CC/C(C)=C/CC/C(C)=C/CC/C(C)=C/CC/C(C)=C/CNCc1ccc2c(c1)OCO2 [Compound 21, N-undecaprenylpiperonylamine hydrochloride]
inhibition in vivo at 0.001 mg/kg ([1]; read-out: GOT inhibition): 38%
inhibition in vivo at 0.001 mg/kg ([1]; read-out: GPT inhibition): 33%

CC(C)=CCC/C(C)=C/CC/C(C)=C/CC/C(C)=C/CC/C(C)=C/CC/C(C)=C/CC/C(C)=C/CC/C(C)=C/CC/C(C)=C/CNCc1ccco1 [Compound 24, N-solanesyl-2-furfurylamine hydrochloride]
inhibition in vivo at 0.03 mg/kg ([2]; read-out: GOT inhibition): 30%
inhibition in vivo at 0.03 mg/kg ([2]; read-out: GPT inhibition): 25%

CC(C)=CCC/C(C)=C/CC/C(C)=C/CC/C(C)=C/CC/C(C)=C/CC/C(C)=C/CC/C(C)=C/CC/C(C)=C/CC/C(C)=C/CNCc1cccs1 [Compound 25, N-solanesyl-2-thienylamine hydrochloride]
inhibition in vivo at 0.03 mg/kg ([2]; read-out: GOT inhibition): 32%
inhibition in vivo at 0.03 mg/kg ([2]; read-out: GPT inhibition): 30%

CC(C)=CCC/C(C)=C/CC/C(C)=C/CC/C(C)=C/CC/C(C)=C/CC/C(C)=C/CC/C(C)=C/CC/C(C)=C/CC/C(C)=C/CNCc1cccnc1 [Compound 26, N-solanesyl-3-pyridylmethylamine dihydrochloride]
inhibition in vivo at 0.03 mg/kg ([2]; read-out: GOT inhibition): 40%
inhibition in vivo at 0.03 mg/kg ([2]; read-out: GPT inhibition): 35%

CC1(C)[C@@H](O[C@H]2O[C@H](C(=O)O)[C@@H](O)[C@H](O)[C@H]2O[C@@H]2O[C@H](C(=O)O)[C@@H](O)[C@H](O)[C@H]2O)CC[C@]2(C)[C@H]3C(=O)C=C4[C@@H]5C[C@@](C)(C(=O)O)CC[C@]5(C)CC[C@@]4(C)[C@]3(C)CC[C@@H]12 [Glycyrrhizin ammonium, glycyrrhizin ammonium, reference compound]
inhibition in vivo at 3 mg/kg ([2]; read-out: GOT inhibition): 22%
inhibition in vivo at 3 mg/kg ([2]; read-out: GPT inhibition): 25%
